Measurements from patent publication US6111103A, “Diresorcinyl-alkoxy- and -aryloxy-s-triazines” (Ciba Specialty Chemicals Corporation, priority 1998, dated 2000).

Columns and labels:
[1] = UV/Vis absorption (λmax, ε); assay type: physicochemical; design: ε at λmax: unit not given beside the values
[2] = Solubility in ethanol (25° C.); assay type: physicochemical

| SMILES | UV/Vis λmax ([1]; EtOH) [nm] | ε at λmax ([1]; EtOH) | Solubility in ethanol [2] [%] | UV/Vis λmax ([1]; Dioxan) [nm] | ε at λmax ([1]; Dioxan) |
| --- | --- | --- | --- | --- | --- |
| CCCCCCCCCCCCC(CCCCCCCCCC)COc1nc(-c2ccc(O)cc2O)nc(-c2ccc(O)cc2O)n1 (stereo not drawn) [compound 101] | 350 | 34482 |  |  |  |
| CCCCC(CC)COc1nc(-c2ccc(O)cc2O)nc(-c2ccc(O)cc2O)n1 (stereo not drawn) [compound 102] | 350 | 39177 | 1.50 |  |  |
| CCCCCCCCC(CCCCCC)COc1nc(-c2ccc(O)cc2O)nc(-c2ccc(O)cc2O)n1 (stereo not drawn) [compound 104] | 351 | 36148 |  |  |  |
| CCCCCCCCCCCCCCCCCCOc1nc(-c2ccc(O)cc2O)nc(-c2ccc(O)cc2O)n1 [compound 105] | 350 | 31662 |  |  |  |
| COc1nc(-c2ccc(O)cc2O)nc(-c2ccc(O)cc2O)n1 [compound 107] | 350 | 36949 | 0.08 |  |  |
| CCOc1nc(-c2ccc(O)cc2O)nc(-c2ccc(O)cc2O)n1 [compound 108] | 350 | 36761 | 0.17 |  |  |
| CCCCCCCCCCCCC(CCCCCCCCCC)COc1nc(-c2ccc(OC)cc2O)nc(-c2ccc(OC)cc2O)n1 (stereo not drawn) [compound 110] |  |  |  | 347 | 36219 |
| CCCCCCCCC(CCCCCC)COc1nc(-c2ccc(OC)cc2O)nc(-c2ccc(OC)cc2O)n1 (stereo not drawn) [compound 111] | 348 | 34123 |  |  |  |
| COc1ccc(-c2nc(OC)nc(-c3ccc(OC)cc3O)n2)c(O)c1 [compound 112] |  |  |  | 347 | 37680 |
